Assay results as given in US12612412B2, “Antiviral heterocyclic compounds” (Enanta Pharmaceuticals, Inc., priority 2021, dated 2026).
Like-named read-outs stand apart in the source and are kept apart here.

Tests used:
[1] = tested on: genotype A, "Long" strain RSV; test: RSV-A assay (CPE protection in Hep-2 cells, ATPlite readout); format: cell-based, Human respiratory syncytial virus (HRSV); details: human respiratory syncytial virus, MOI 0.1, CPE protection
Method in brief: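 Compound effect on RSV-induced CPE: Hep-2 monolayers, MOI 0.1, duplicate 2-fold titrations, 5-day culture in 10% FBS DMEM. Readout is ATP-based luminescence, normalised to virus-only and no-virus controls, giving EC50.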

[2] = tested on: recombinant HMPV CAN97-83 containing eGFP (MPV-GFP1); test: HMPV antiviral assay Method-A (MPV-GFP1 eGFP fluorescence in Vero E6 cells); format: cell-based, Human metapneumovirus (HMPV); details: human metapneumovirus, Vero C1008, 120 h, read-out: HMPV EC50
Method: HMPV antiviral activity was evaluated using a recombinant version of HMPV CAN97-83 engineered to contain the coding sequence for enhanced green fluorescence protein (eGFP) in the 3′ end of the virus genome (MPV-GFP1, ViraTree). Vero E6 cells ([…]) were seeded at a density of 12,000 cells/100 μL/well into 96-well cell plates one day prior to the assay. On the day of screening, the cell culture medium was aspirated from the wells and cells were washed twice with serum-free Eagle's Modified Essential Medium (EMEM, ATCC #) containing 1% penicillin-streptomycin (Invitrogen) (SF-EMEM). Cell washes were performed by dispensing 100 μL SF-EMEM per well and immediately aspirating the wash medium from the well. Following the second wash step, serum-free OptiMEM (Invitrogen, Cat No.) (SF-OptiMEM) containing 0.5 μg/mL TPCK-Trypsin (VENDOR) and 1% penicillin-streptomycin was added to the cells at 50 μL/well. Compounds were added into the 96-well plates using a JANUS automated liquid handling system (VENDOR). Compounds were initially diluted 1:50 into an intermediate 96-well plate containing SF-OptiMEM prior to transfer to the assay plate (25 μL/well). Each of the test compounds were tested in duplicate wells at final concentrations starting from 8 μM or 2 μM using ½ stepwise dilutions for a total of 8 points. Virus infection was performed by preparing a working stock of MPV-GFP1 at a multiplicity of infection (MOI) equal to 0.05/25 μL and aliquoting 25 μL of virus inoculum to the compound and positive control wells. SF-OptiMEM was added (25 μL/well) to the appropriate wells to serve as a virus-free negative control for the assay. The final DMSO concentration of all wells is 0.5%. Plates were incubated at 32° C., 5% CO2 for 5 days.
After 5 days incubation, eGFP fluorescence intensity was measured at (X) […] wavelength using a Spectramax i3× plate reader (VENDOR). Percent viral inhibition was calculated using the following equation: y=[…]
Where XQ is the fluorescence intensity measured in a well containing recombinant MPV-GFP1-infected, compound-treated cells and XP is the average fluorescence intensity measured in the wells containing untreated cells infected with recombinant virus. EC50 values were then calculated by non-linear regression using a four parameter curve logistic equation. The curve fit model employed was XLFit Dose Response One Site Model 200: y=(A+(B/(1+((x/C)^D))))
Where A is the minimum y value, B is the maximum y value, C is the log EC50 value, and D is the slope factor. […] EC50 ranges are as follows: A<0.5 μM; B>0.5 μM.

[3] = tested on: HMPV clinical isolate TN/1501/A1; test: HMPV antiviral assay Method-B (clinical isolate TN/1501/A1 in LLC-MK2 cells, ATP-Lite readout); format: cell-based, Human metapneumovirus (HMPV); details: human metapneumovirus, LLC-MK2, 144 h, hMPV WT1501 (clinical isolate TN/1501/A1), 6 days
Method in brief: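 EC50 derived by four-parameter logistic fit of percent cell health, measured by ATP-Lite luminescence and normalised to virus-only and uninfected-cell controls. Compounds run in duplicate from 10 μM top, 3-fold, 10 points. Infection: LLC-MK2 cells, MOI 0.014, 2 μg/mL final TPCK-trypsin, serum-free, 6 days at 37° C.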

[4] = genotype A “Long” strain RSV, read-out: Human RSV-A (“Long”)
[5] = RSV-A Long strain, read-out: Human RSV-A (“Long”) EC50

EC50 [1, 5] [nM] | EC50 [3] [nM] | Compound | EC50 [1, 4] [nM] | EC50 [2] [nM]
– | – | C[C@H](COc1ccc(C(=O)NC[C@](O)(c2cc3c(c(-c4ccc(F)cc4)n2)OC[C@]3(C)C(N)=O)C(F)(F)F)cc1OC1CC1)OP(=O)(O)O [Example 3] | < 200 | > 500
– | – | COc1cc(C(=O)NC[C@](O)(c2cc3c(c(-c4ccc(F)cc4)n2)OC[C@]3(C)C(N)=O)C(F)(F)F)cc2cc(C)c(CO)nc12 [Example 4] | < 200 | < 500
– | – | COc1cc(C(=O)NC[C@](O)(c2cc3c(c(-c4ccc(F)cc4)n2)OC[C@]3(C)C(N)=O)C(F)(F)F)cc2ccnnc12 [Example 6] | < 200 | < 500
– | – | C[C@]1(C(N)=O)COc2c1cc([C@@](O)(CNC(=O)c1ccc3nnc(C4CC4)cc3c1)C(F)(F)F)nc2-c1ccc(F)cc1 [Example 7] | < 200 | < 500
– | – | COc1cc(C(=O)NC[C@](O)(c2cc3c(c(-c4ccc(F)cc4)n2)OC[C@]3(C)C(N)=O)C(F)(F)F)cc2cc(C)nnc12 [Example 9] | < 200 | < 500
– | – | COc1cc(C(=O)NC[C@](O)(c2cc3c(c(-c4ccc(F)c(Cl)c4)n2)OC[C@]3(C)C(N)=O)C(F)(F)F)cc2cc(C)nnc12 [Example 10] | < 200 | < 500
– | – | CCc1nc2ccc(C(=O)NC[C@](O)(c3cc4c(c(-c5ccc(F)cc5)n3)OC[C@]4(C)C(N)=O)C(F)(F)F)cc2s1 [Example 11] | < 200 | > 500
– | – | C[C@]1(C(N)=O)COc2c1cc([C@@](O)(CNC(=O)c1cc(F)c3nc(N)sc3c1)C(F)(F)F)nc2-c1ccc(F)c(Cl)c1 [Example 12] | < 200 | < 500
– | – | C[C@]1(C(N)=O)COc2c1cc([C@@](O)(CNC(=O)c1cc(Cl)c3nc(N)sc3c1)C(F)(F)F)nc2-c1ccc(F)c(Cl)c1 [Example 13] | < 200 | < 500
– | – | C[C@]1(C(N)=O)COc2c1cc([C@@](O)(CNC(=O)c1ccc3nc(C4CC4)sc3c1)C(F)(F)F)nc2-c1ccc(F)cc1 [Example 14] | < 200 | < 500
– | – | CCc1nc2c(OC)cc(C(=O)NC[C@](O)(c3cc4c(c(-c5ccc(F)cc5)n3)OC[C@]4(C)C(N)=O)C(F)(F)F)cc2s1 [Example 16] | < 200 | < 500
– | – | COc1cc(C(=O)NC[C@](O)(c2cc3c(c(-c4ccc(F)cc4)n2)OC[C@]3(C)C(N)=O)C(F)(F)F)cc2sc(C3CC3)nc12 [Example 17] | < 200 | < 500
– | – | COc1cc(C(=O)NC[C@](O)(c2cc3c(c(-c4ccc(F)c(Cl)c4)n2)OC[C@]3(C)C(N)=O)C(F)(F)F)cc2sc(C3CC3)nc12 [Example 19] | < 200 | < 500
– | – | CCc1nc2c(OC)cc(C(=O)NC[C@](O)(c3cc4c(c(-c5ccc(F)c(Cl)c5)n3)OC[C@]4(C)C(N)=O)C(F)(F)F)cc2s1 [Example 20] | < 200 | < 500
– | – | Cn1cc2cc(C(=O)NC[C@](O)(c3cc4c(c(-c5ccc(F)cc5)n3)OC[C@]4(C)C(N)=O)C(F)(F)F)cc(F)c2n1 [Example 22] | < 200 | < 500
– | – | COc1cc(C(=O)NC[C@](O)(c2cc3c(c(-c4ccc(F)cc4)n2)OC[C@]3(C)C(N)=O)C(F)(F)F)cc2cn(C3CC3)nc12 [Example 24] | < 200 | < 500
– | – | C[C@]1(C(N)=O)COc2c1cc([C@@](O)(CNC(=O)c1cc(F)c3nn(C4CC4)cc3c1)C(F)(F)F)nc2-c1ccc(F)cc1 [Example 25] | < 200 | < 500
– | – | C[C@]1(C(N)=O)COc2c1cc([C@@](O)(CNC(=O)c1cc(OC3CC3)c3nn(C4CC4)cc3c1)C(F)(F)F)nc2-c1ccc(F)cc1 [Example 26] | < 200 | < 500
– | – | Cn1cc2cc(C(=O)NC[C@](O)(c3cc4c(c(-c5ccc(F)cc5)n3)OC[C@]4(C)C(N)=O)C(F)(F)F)cc(OC3CC3)c2n1 [Example 27] | < 200 | < 500

EC50 [1, 5] [nM] | EC50 [3] [nM] | Compound | EC50 [1, 4] [nM] | EC50 [2] [nM]
– | – | COc1cc(C(=O)NC[C@](O)(c2cc3c(c(-c4ccc(F)c(Cl)c4)n2)OC[C@]3(C)C(N)=O)C(F)(F)F)cc2cn(C3CC3)nc12 [Example 28] | < 200 | < 500
– | – | C[C@]1(C(N)=O)COc2c1cc([C@@](O)(CNC(=O)c1cc(F)c3nn(C4CC4)cc3c1)C(F)(F)F)nc2-c1ccc(F)c(Cl)c1 [Example 29] | < 200 | < 500
– | – | C[C@]1(C(N)=O)COc2c1cc([C@@](O)(CNC(=O)c1cc(OC3CC3)c3nn(C4CC4)cc3c1)C(F)(F)F)nc2-c1ccc(F)c(Cl)c1 [Example 30] | < 200 | < 500
– | – | COc1cc(C(=O)NC[C@](O)(c2cc3c(c(-c4ccc(F)c(Cl)c4)n2)OC[C@]3(C)C(N)=O)C(F)(F)F)cc2cc(C3CC3)nn12 [Example 32] | < 200 | < 500
– | – | C[C@]1(C(N)=O)COc2c1cc([C@@](O)(CNC(=O)c1ccc3c(c1)CN(C1CC1)C3=O)C(F)(F)F)nc2-c1ccc(F)cc1 [Example 34] | < 200 | > 500
– | – | COc1cc(C(=O)NC[C@](O)(c2cc3c(c(-c4ccc(F)cc4)n2)OC[C@]3(C)C(N)=O)C(F)(F)F)cc2cn(C(F)F)nc12 [Example 40] | < 200 | < 500
– | – | C[C@]1(C(N)=O)COc2c1cc([C@@](O)(CNC(=O)c1ccc3nn(C(F)F)cc3c1)C(F)(F)F)nc2-c1ccc(F)cc1 [Example 41] | < 200 | < 500
– | – | C[C@]1(C(N)=O)COc2c1cc([C@@](O)(CNC(=O)c1cc(Cl)c3nn(C(F)F)cc3c1)C(F)(F)F)nc2-c1ccc(F)cc1 [Example 42] | < 200 | < 500
– | – | C[C@]1(C(N)=O)COc2c1cc([C@@](O)(CNC(=O)c1cc(F)c3nn(C(F)F)cc3c1)C(F)(F)F)nc2-c1ccc(F)cc1 [Example 43] | < 200 | < 500
– | – | C[C@]1(C(N)=O)COc2c1cc([C@@](O)(CNC(=O)c1cc(Cl)c3nn(C(F)F)cc3c1)C(F)(F)F)nc2-c1ccc(F)c(Cl)c1 [Example 44] | < 200 | < 500
– | – | C[C@]1(C(N)=O)COc2c1cc([C@@](O)(CNC(=O)c1cc(F)c3nn(C(F)F)cc3c1)C(F)(F)F)nc2-c1ccc(F)c(Cl)c1 [Example 45] | < 200 | < 500
– | – | C[C@]1(C(N)=O)COc2c1cc([C@@](O)(CNC(=O)c1cc(C3CC3)c3nn(C(F)F)cc3c1)C(F)(F)F)nc2-c1ccc(F)cc1 [Example 47] | < 200 | < 500
< 200 | < 500 | COc1cc(C(=O)NC[C@](O)(c2cc3c(c(-c4c(F)cc(F)cc4Cl)n2)OC[C@]3(C)C(N)=O)C(F)(F)F)cc2cn(C3CC3)nc12 [Example 1235] | – | –
< 200 | < 500 | COc1cc(C(=O)NC[C@](O)(c2cc3c(c(-c4ccccc4Cl)n2)OC[C@]3(C)C(N)=O)C(F)(F)F)cc2cn(C3CC3)nc12 [Example 1248] | – | –
> 200 | > 500 | COc1cc(C(=O)NC[C@](O)(c2cc3c(c(-c4ccc(-c5ccccc5)cc4)n2)OC[C@]3(C)C(N)=O)C(F)(F)F)cc2cn(C3CC3)nc12 [Example 1249] | – | –
< 200 | > 500 | COc1cc(C(=O)NC[C@](O)(c2cc3c(c(-c4ccccc4-c4ccccc4)n2)OC[C@]3(C)C(N)=O)C(F)(F)F)cc2cn(C3CC3)nc12 [Example 1250] | – | –
> 200 | > 500 | COc1cc(C(=O)NC[C@](O)(c2cc3c(c(-c4cccc(-c5ccccc5)c4)n2)OC[C@]3(C)C(N)=O)C(F)(F)F)cc2cn(C3CC3)nc12 [Example 1251] | – | –
> 200 | > 500 | COc1cc(C(=O)NC[C@](O)(c2cc3c(c(N4CCOCC4)n2)OC[C@]3(C)C(N)=O)C(F)(F)F)cc2cn(C3CC3)nc12 [Example 1269] | – | –
